Assay results: US20070298413A1, “Topoisomerase Modulators Assays” (AstraZeneca AB, priority 2003, published 2007)
In brackets after ≈: the same amount, converted by molar mass. Where two headings read alike, the source gives them in different places. Values belong to the molecule of their own block, whether it stands above or below them.

Experiments:
H. influenzae = assay: minimum inhibitory concentration (MIC); assay type: cell-based; settings: Haemophilus influenzae
[1] = test system: bacteria that carry a DNA relaxation-stimulated lacZ gene on a plasmid (pRAS101, 19.4, pSB2.his); assay: plate lawn technique on X-Gal medium (blue ring); assay type: cell-based, E. coli; settings: spotted onto lawn of bacteria, overnight growth at 37° C.; clones pRAS101, 19.4 and pSB2.his similar
Description: The principle of the screen is based on the observation that if known gyrase inhibitors are spotted onto X-Gal medium containing bacteria that carry a DNA relaxation-stimulated lacZ gene on a plasmid, clear zones of inhibition surrounded by a blue ring are formed after overnight growth. The blue ring presumably forms at the drug concentration where optimum relaxation-stimulation of the reporter gene has occurred before the cells are killed.
The following three clones were used: a) clone pRAS101 containing the gyrA promoter linked to the β-galactosidase gene; b) clone 19.4 (found by method described in section 3.3); and c) clone pSB2.his containing the hisD promoter linked to the β-galactosidase gene.
Cultures were grown overnight and diluted 1:1000 in (melted) L-agar cooled to 45° C. containing 50 μg/mL Ap and 60 μg/mL X-Gal. The medium was poured into 15×150 mm petri dishes immediately. After it had solidified, known gyrase inhibitors were applied automatically onto the solid agar surface using a Tomtec Quadra 96 machine as follows: 20 μg nalidixic acid (Nx), 100 μg novobiocin (Novo), 2 μg ciprofloxacin (Cipro), 10 μg coumermycin (Cou), 2 μg cinoxacin (Cinox), 2 μg pefloxacin (Pef), 2 μg fleroxacin (Fle), 2 μg flumequine (Flu) and 2 μg norfloxacin (Nor). […]

[2] = test system: clone 19.4 (relaxation-stimulated promoter upstream of lacZ in pSB2); assay: microtiter plate β-galactosidase assay, clone 19.4; assay type: cell-based, E. coli; settings: nalidixic acid 200 μg/ml, 2 hours at 37° C., treated vs control culture
Description: The T4 terminator (T4 t) and lacZ gene were inserted into a plasmid expression vector pTB244 to create the construct pSB2. In this construct, the transcription of the lacZ gene, without a promoter, is prevented by the upstream T4 terminator, such that insertion of a promoter is necessary for lacZ expression. A random E. coli DNA library was constructed by inserting Escherichia coli chromosomal Sau3A fragments into the BamHI site of the screening vector pSB2, upstream of the promoter-less lacZ gene.
The library was transformed into the lacZ^− E. coli host strain MSD1011 (MM294 Δlac=E. coli K12 hsdR Δlac). […] Blue transformants were screened for the presence of relaxation-stimulated promoters using the microtiter plate β-galactosidase assay.
The β-galactosidase assays were carried out in 96-well, flat bottom microtiter plates. Blue (lacZ^+) ampicillin-resistant colonies of all sizes and shades of blue were purified, inoculated into 200 μl media (L-broth containing 50 μg/ml ampicillin) and incubated overnight at 37° C. […] Before carrying out the β-galactosidase assay, absorbance WAS read automatically on the Molecular Devices Microplate Reader at 595 nm in order to measure the differences in the cell titers between control and treated cultures. […] The plates were read at 28° C. on a Molecular Devices Microplate Reader at 420 nm for 2 mins at 0.09 sec intervals.

[3] = test system: pRAS101, gyrA promoter linked to a lacZ gene; assay: microtiter plate β-galactosidase assay, pRAS101 positive control; assay type: cell-based, E. coli; settings: nalidixic acid 200 μg/ml, 2 hours at 37° C.
Description: The β-galactosidase assays were carried out in 96-well, flat bottom microtiter plates. Blue (lacZ^+) ampicillin-resistant colonies of all sizes and shades of blue were purified, inoculated into 200 μl media (L-broth containing 50 μg/ml ampicillin) and incubated overnight at 37° C. Cultures were then diluted 1:20 into fresh broth and incubated for 1.5 hours at 37° C. with shaking at 230 rpm to mid log phase. At this point half of each culture was transferred to a duplicate microtitre plate to which nalidixic acid had been added to give a final concentration of 200 μg/ml. Both plates were incubated at 37° C. for 2 hours to allow expression of the reporter gene that was then assayed. Before carrying out the β-galactosidase assay, absorbance WAS read automatically on the Molecular Devices Microplate Reader at 595 nm in order to measure the differences in the cell titers between control and treated cultures. 25 μl of β-galactosidase assay emulsion (prepared as follows: 5 mL ONPG (O-nitrophenyl-β-D-galactopyranodside) at 4 mg/ml, 5 mL 1× Z-buffer, 0.3 mL 1% SDS, 0.2 mL chloroform, 0.2 mL ether), was added to each well. The plates were read at 28° C. on a Molecular Devices Microplate Reader at 420 nm for 2 mins at 0.09 sec intervals. […]

MIC (H. influenzae; measured MIC against H. influenzae, read-out: MIC): 0.125 µg/mL (≈ 0.358 µM)
SMILES: CC1(C)S[C@@H]2[C@H](NC(=O)[C@H](N)c3ccccc3)C(=O)N2[C@H]1C(=O)O [ampicillin]

SMILES: O=C(N[C@H](CO)[C@H](O)c1ccc([N+](=O)[O-])cc1)C(Cl)Cl [chloramphenicol]
stimulation of the DNA relaxation-stimulated reporter gene (blue ring) [1]: little to no stimulation

SMILES: CCn1cc(C(=O)O)c(=O)c2ccc(C)nc21 [nalidixic acid]
relaxation stimulated transcription ratio [2]: 6.1
stimulation ratio (average) [3]: 3.1 fold

SMILES: CO[C@@H]1[C@@H](OC(N)=O)[C@@H](O)[C@H](Oc2ccc3c(O)c(NC(=O)c4ccc(O)c(CC=C(C)C)c4)c(=O)oc3c2C)OC1(C)C [novobiocin]
MIC (H. influenzae): 0.125 µg/mL (≈ 0.204 µM)
